From patent publication US8492414B2, “Antibacterial agents” (Biota Scientific Management Pty Ltd, priority 2007, dated 2013)
In brackets after ≈: the same amount, converted by molar mass.

What follows are molecules tested on Staphylococcus aureus ATCC29213 (assay: Minimum Inhibitory Concentration (MIC) testing, broth microdilution or agar dilution). Settings: MIC scored A/B/C, read-out: Staphylococcus aureus MICs, Activity.
Assay type: cell-based
Protocol: Minimum Inhibitory Concentration (MIC) Testing Compounds of this invention were tested for antimicrobial activity by susceptibility testing in liquid or on solid media. […] Activities were scored as ‘A’ if the MIC was ≦[…] micrograms/ml, ‘B’ if the MIC was 0.25 to 4 micrograms/ml and ‘C’ if the MIC was greater than 4 micrograms/ml.
NC(=O)c1c(F)ccc(OCc2nc(-c3ccc(Cl)cc3)ns2)c1F [Example 1, 3-[3-(4-Chlorophenyl)-[1,2,4]thiadiazol-5-ylmethoxy]-2,6-difluorobenzamide] gave an MIC of no more than 1.12 mg/L. COc1ccc(-c2nsc(COc3ccc(F)c(C(N)=O)c3F)n2)cc1 [Example 2, 2,6-Difluoro-3-[3-(4-methoxyphenyl)-[1,2,4]thiadiazol-5-ylmethoxy]-benzamide] was tested, and the MIC was no more than 1.12 mg/L. NC(=O)c1c(F)ccc(OCc2nc(-c3ccc(OC(F)(F)F)cc3)ns2)c1F [Example 3, 2,6-Difluoro-3-[3-(4-trifluoromethoxyphenyl)-[1,2,4]thiadiazol-5-ylmethoxy]-benzamide] showed an MIC of no more than 1.12 mg/L. NC(=O)c1c(F)ccc(OCc2nc(-c3ccc(O)cc3)ns2)c1F [Example 4, 2,6-Difluoro-3-[3-(4-hydroxyphenyl)-[1,2,4]thiadiazol-5-ylmethoxy]-benzamide] gave an MIC of 0.25 to 4 mg/L (≈ 0.688 to 11 µM). COc1cc(Cl)ccc1-c1nsc(COc2ccc(F)c(C(N)=O)c2F)n1 [Example 5, 3-((3-(4-chloro-2-methoxyphenyl)-1,2,4-thiadiazol-5-yl)methoxy)-2,6-difluorobenzamide] was tested, and the MIC was 0.25 to 4 mg/L (≈ 0.607 to 9.71 µM). In the case of NC(=O)c1c(F)ccc(OCc2nc(-c3ccc(Cl)cc3OCc3ccccc3)ns2)c1F [Example 6, 3-((3-(2-(Benzyloxy)-4-chlorophenyl)-1,2,4-thiadiazol-5-yl)methoxy)-2,6-difluorobenzamide], the MIC is reported as 0.25 to 4 mg/L (≈ 0.512 to 8.2 µM). Work on NC(=O)c1c(F)ccc(OCc2nc(-c3ccc(Cl)cc3O)ns2)c1F [Example 7, 3-((3-(4-chloro-2-hydroxyphenyl)-1,2,4-thiadiazol-5-yl)methoxy)-2,6-difluorobenzamide] yielded an MIC of no more than 1.12 mg/L.
